Seven compounds from ChEMBL document CHEMBL1201862, “PubChem BioAssay data set” (2004) can be followed below.

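Grown in 96-well plates, cells were treated for 48 hours with each compound at five concentrations. Insufficient inhibition: endpoint recorded as highest concentration tested. GI50 marks 50% less growth.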 Calls of active or inactive are those of the source. Rule as the data show it: active = GI50 up to about 1.1 µM and inactive = higher.

What all share (assay): NCI anticancer screen, dose series, 48 h
Assay [1] deals with SNB-19.
Assay [2] concerns OVCAR-5.
Assay [3] concerns SNB-75.
In assay [4] the test system is HCT-15.
The test system of assay [5] is NCI-H226.
The subject of assay [6] is Hs-578T.
Assay [7] relates to K562.
In assay [8] the test system is SK-MEL-5.
Assay [9] deals with HCC 2998.
For assay [10], the system named is SF-539.
Assay [11] concerns BT-549.
Assay [12] deals with RXF 393.
Assay [13] relates to HCT-116.
For assay [14], the system named is A549.
The test system of assay [15] is SK-MEL-2.
In assay [16] the test system is MDA-MB-435.
Assay [17] has as its system KM12.
Assay [18] deals with SW-620.
The subject of assay [19] is RPMI-8226.
Assay [20] concerns T47D.

`O=C(O)CCSCc1ccccc1`: the GI50 in assay [1] was > 100 µM (inactive); in [2], > 100 µM (inactive); in assay [3] it was > 100 µM (inactive); in [4], above 100 µM; in assay [5] it was > 100 µM (inactive); in assay [6], > 100 µM (inactive). The GI50 in assay [7], in [8], in assay [9], in assay [10], in [11] and in assay [12] was > 100 µM (inactive) throughout. In addition, the GI50 in assay [13], in [14], in [15], in [16], in assay [17] and in [18] was > 100 µM (inactive) throughout. Besides, the GI50 in [19] and in [20] was > 100 µM (inactive) each time.
Turning to `O=C(O)C1C(C(=O)O)C2C(=O)C=CC1N2Cc1ccccc1` (stereo not drawn), the GI50 in [1] is 5.55 µM (inactive); in [2], 6.22 µM (inactive); in assay [3], 2.65 µM (inactive); in assay [4] it was 2.46 µM; in assay [5], 16 µM (inactive); in assay [6], 2.82 µM (inactive). For the same compound, the GI50 in assay [7] is 6.67 µM (inactive); in [8], 5.32 µM (inactive); in assay [9] it was 2.8 µM (inactive); in [10] it was 2.8 µM (inactive); in assay [11] it was 4.57 µM (inactive); in assay [12], 2.72 µM (inactive). For the same compound, the GI50 was 3.68 µM (inactive) in [13]; 6.71 µM (inactive) in assay [14]; 8.51 µM (inactive) in assay [15]; 3.66 µM (inactive) in assay [16]; 3.61 µM (inactive) in assay [17]; 2.65 µM (inactive) in [18]. Besides, the GI50 in [19] is 2.96 µM (inactive); in assay [20], 3.46 µM (inactive).
With `CCOC(=O)Cn1nnc2ccc(Nc3nc4ccccc4nc3C(=O)OCC)cc21`, the GI50 in assay [1] is 69.5 µM (inactive); in assay [2], > 100 µM (inactive); in assay [3], 18.5 µM (inactive); in assay [4], above 100 µM; in assay [5] it was > 100 µM (inactive); in assay [6], 33.5 µM (inactive). Besides, the GI50 in [7] is > 100 µM (inactive); in assay [8], > 100 µM (inactive); in assay [9], 87.3 µM (inactive); in assay [10] it was 31.3 µM (inactive); in assay [11] it was 73.8 µM (inactive); in [12] it was 37.9 µM (inactive). In addition, the GI50 in [13], in assay [14], in assay [15], in [16], in assay [17] and in assay [18] was > 100 µM (inactive) in each case. Moreover, the GI50 in assay [19] and in [20] was > 100 µM (inactive) each time.
On to `Cc1c(-c2ccccc2)c(C#N)c2nnn(C3CCCCC3)c(=O)n12`, for which the GI50 in [1] is 66.5 µM (inactive); in assay [2], 94.4 µM (inactive); in assay [3], 28 µM (inactive); in [4], above 100 µM; in assay [5] it was 35.8 µM (inactive); in [6] it was 97.9 µM (inactive). The GI50 in [7] was 88.3 µM (inactive); in assay [8], 72.4 µM (inactive); in assay [9], > 100 µM (inactive); in [10], 47.4 µM (inactive); in assay [11] it was > 100 µM (inactive); in assay [12], 19.8 µM (inactive). The GI50 in assay [13] is 52.6 µM (inactive); in [14], 83.4 µM (inactive); in assay [15], 31.6 µM (inactive); in [16] it was > 100 µM (inactive); in assay [17], > 100 µM (inactive); in assay [18], > 100 µM (inactive). Moreover, the GI50 in assay [19] is 47.4 µM (inactive); in assay [20] it was > 100 µM (inactive).
Regarding `CCCCCCCCCCCCCCCCCCNc1ccn(C2OC(COP(=O)(O)O)C(O)C2O)c(=O)n1` (stereo not drawn), the GI50 in assay [1] was > 100 µM (inactive); in assay [2] it was > 100 µM (inactive); in assay [3], > 100 µM (inactive); in [4], above 100 µM; in assay [5] it was > 100 µM (inactive); in assay [6], > 100 µM (inactive). In addition, the GI50 in assay [7], in [8], in assay [9], in [10], in assay [11] and in assay [12] was > 100 µM (inactive) in each case. Besides, the GI50 in [13], in [14], in [15], in assay [16], in assay [17] and in assay [18] was > 100 µM (inactive) in each case. Further, the GI50 in [19] and in assay [20] was > 100 µM (inactive) each time.
Take `C#CCNC(Cc1ccccc1)C(=O)O` (stereo not drawn): the GI50 in assay [1] was > 100 µM (inactive); in assay [2], > 100 µM (inactive); in assay [3], > 100 µM (inactive); in [4], above 100 µM; in assay [5], > 100 µM (inactive); in assay [6], > 100 µM (inactive). Besides, the GI50 in [7], in [8], in assay [9], in [11], in [12] and in assay [13] was > 100 µM (inactive) in each case. In addition, the GI50 in [14], in assay [15], in assay [16], in assay [17], in assay [18] and in assay [19] was > 100 µM (inactive) in each case. In addition, the GI50 in assay [20] was > 100 µM (inactive).
Regarding `CC(=O)O[C@H]1C(=O)[C@@]2(C)[C@H]([C@H](OC(=O)c3ccccc3)[C@]3(O)C[C@H](OC(=O)[C@H](O)[C@@H](NC(=O)C(C)(O)C(C)O)c4ccccc4)C(C)=C1C3(C)C)[C@]1(OC(C)=O)CO[C@@H]1C[C@@H]2O` (stereo partly drawn), the GI50 is 0.796 µM (active) in [1]; 0.687 µM (active) in assay [2]; 0.0514 µM (active) in [3]; 17 µM in assay [4]; 0.0964 µM (active) in assay [6]; 0.172 µM (active) in [7]. In addition, the GI50 in assay [8] was 0.207 µM (active); in assay [9] it was 0.141 µM (active); in [10], 0.112 µM (active); in assay [11] it was 0.142 µM (active); in [12] it was 0.316 µM (active); in [13] it was 0.14 µM (active). Moreover, the GI50 in assay [14] is 0.573 µM (active); in [15], 0.124 µM (active); in [16], 0.0352 µM (active); in assay [17], 0.167 µM (active); in assay [18] it was 0.195 µM (active); in [19], 0.0865 µM (active). Besides, the GI50 in assay [20] is 0.929 µM (active).
